# Values of other authors in patent US11020416B2, “Cancer chemotherapy employing halogenated analogs of thymidine” (priority 2015, dated 2021).
# Read-outs that look alike come from different tables or passages of the source.
# Key:
# [1] = test system: Oropharynx and Upper Extremity Tumors; conditions: trial b, 1962, 4 patients, dose 3.9, iv/ia, no radiation, single cycle 1 week; cited from earlier work
# Carcinoma, Melanoma = conditions: trial c, 1962, 39 patients, dose 3.5, iv, no radiation, single cycle 1 week; cited from earlier work
# [2] = intraperitoneal, Morgan 1998, cited from earlier work
# PARP1 = PARP1 (Homo sapiens, UniProt P09874); conditions: solution; Pivazyan, 1992; cited from earlier work
# PARP1, sequence (P09874 whole entry, species assumed): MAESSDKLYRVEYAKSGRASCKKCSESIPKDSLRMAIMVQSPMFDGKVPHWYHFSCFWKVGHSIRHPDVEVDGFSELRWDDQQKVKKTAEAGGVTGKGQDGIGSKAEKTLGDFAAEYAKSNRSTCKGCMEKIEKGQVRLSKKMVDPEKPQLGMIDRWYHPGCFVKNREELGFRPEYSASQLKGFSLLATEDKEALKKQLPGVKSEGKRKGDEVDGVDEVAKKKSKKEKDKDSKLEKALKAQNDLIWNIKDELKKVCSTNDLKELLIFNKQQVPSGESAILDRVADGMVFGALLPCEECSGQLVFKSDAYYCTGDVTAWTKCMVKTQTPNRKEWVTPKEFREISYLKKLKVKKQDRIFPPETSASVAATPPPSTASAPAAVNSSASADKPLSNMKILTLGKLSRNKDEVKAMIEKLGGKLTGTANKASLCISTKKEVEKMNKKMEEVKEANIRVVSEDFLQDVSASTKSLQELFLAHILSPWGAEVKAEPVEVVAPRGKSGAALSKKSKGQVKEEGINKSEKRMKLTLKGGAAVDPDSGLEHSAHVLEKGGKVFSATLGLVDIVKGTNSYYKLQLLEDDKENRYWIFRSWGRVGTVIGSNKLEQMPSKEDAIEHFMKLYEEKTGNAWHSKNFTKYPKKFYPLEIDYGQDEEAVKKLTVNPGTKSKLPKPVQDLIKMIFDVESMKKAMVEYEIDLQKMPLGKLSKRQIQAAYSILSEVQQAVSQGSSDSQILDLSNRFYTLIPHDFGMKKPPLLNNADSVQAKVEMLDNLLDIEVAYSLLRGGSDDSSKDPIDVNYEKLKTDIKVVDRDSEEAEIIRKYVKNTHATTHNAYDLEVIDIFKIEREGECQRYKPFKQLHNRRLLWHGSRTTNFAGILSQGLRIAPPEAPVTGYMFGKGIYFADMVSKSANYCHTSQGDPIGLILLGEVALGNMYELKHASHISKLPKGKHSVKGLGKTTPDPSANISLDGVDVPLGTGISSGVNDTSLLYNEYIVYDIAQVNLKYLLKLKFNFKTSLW
# Unresectable Sarcoma = conditions: trial d, 1987, 14 patients, dose 1.3, iv, with radiation, multiple cycles up to 5 months, cited from earlier work
# [3] = test system: Colorectal Liver Metastases; conditions: trial f, 1989, 11 patients, dose 1.0, ia, no radiation, multiple cycles up to 5 months, cited from earlier work
# [4] = test system: Melanoma, Carcinoma, Sarcoma; conditions: trial a, 1961, 16 patients, dose 3.1, iv, rad +/−, multiple cycles up to 5 months; cited from earlier work
# [5] = 14-day continuous infusion alternating with 14 days without infusion; cited from earlier work
# [6] = cited from earlier work; for [IdU] plasma, average steady-state: continuous iv; for [IU] plasma (iodouracil), average steady-state: continuous iv IdU
# [7] = schedule A, 4.538 Grams/M^2/4 hr (2 liters), 64 millimolar
# [8] = schedule G, 1.000 Grams/M^2/day, Kinsella 1988
# [9] = schedule I, 0.781 Grams/M^2/day, Schultz 2004
# [10] = schedule J, 0.625 Grams/M^2/day, Schultz 2004
# [11] = schedule M, 0.500 Grams/M^2/day, Schultz 2004
# [12] = schedule N, 0.400 Grams/M^2/day, Schultz 2004
# [13] = schedule O, 0.300 Grams/M^2/day, Schultz 2004
# [14] = schedule Q, 0.200 Grams/M^2/day, Schultz 2004
# [15] = schedule R, 0.100 Grams/M^2/day, Schultz 2004
structure (smiles),measurement,setting,value
"O=c1[nH]c(=O)n([C@H]2C[C@H](O)[C@@H](CO)O2)cc1I [Iododeoxyuridine, 5-iododeoxyuridine]",objective improvement,[1],100%
same,subjective improvement,[1],100%
same,objective improvement,"Carcinoma, Melanoma",26%
same,Peritoneal AUC,[2]; [7],4099 µM·h
same,Plasma AUC,[2]; [7],139 µM·h
same,Plasma AUC,"[2]; schedule F, 0.625 Grams/M^2/4 hr (2 liters), 9 millimolar",4.38 µM·h
same,Ki,PARP1,18 µM
same,objective improvement,Unresectable Sarcoma,80%
same,subjective improvement,Unresectable Sarcoma,more than half of patients
same,subjective improvement,Unresectable Sarcoma; listed as IUDR,57%
same,objective improvement,[3],almost half of the patients
same,objective improvement,[3]; listed as IUDR,45%
same,objective improvement,[4],38%
same,subjective improvement,[4],38%
same,time after HAT withdrawal to myelosuppression nadir and return of blood cell counts to normal,[5],7 to 10 days
same,plasma concentration achieved,"[6]; continuous circulatory infusion, historic trials d-f",> 1.0 µM
same,elimination from patient plasma,[6]; pharmacokinetic analysis in patients,rapidly eliminated
same,"[IdU] plasma, average steady-state","[6]; schedule C, 1.200 Grams/M^2/day, Klecker 1985",7.4 µM
same,"[IdU] plasma, average steady-state","[6]; schedule D, 1.200 Grams/M^2/day, Kinsella 1988",3.4 µM
same,"[IdU] plasma, average steady-state","[6]; schedule E, 1.000 Grams/M^2/day, Klecker 1985",5.6 µM
same,"[IU] plasma (iodouracil), average steady-state",[6]; [8],>20 µM
same,"[IdU] plasma, average steady-state",[6]; [8],2.4 µM
same,"[IdU] plasma, average steady-state","[6]; schedule H, 0.850 Grams/M^2/day, Klecker 1985",4.5 µM
same,"[IU] plasma (iodouracil), average steady-state",[6]; [9],21.8 µM
same,"[IdU] plasma, average steady-state",[6]; [9],1.5 µM
same,"[IU] plasma (iodouracil), average steady-state",[6]; [10],13.9 µM
same,"[IdU] plasma, average steady-state",[6]; [10],1.3 µM
same,"[IdU] plasma, average steady-state","[6]; schedule K, 0.500 Grams/M^2/day, Klecker 1985",2.9 µM
same,"[IdU] plasma, average steady-state","[6]; schedule L, 0.500 Grams/M^2/day, Kinsella 1988",1.3 µM
same,"[IU] plasma (iodouracil), average steady-state",[6]; [11],6.0 µM
same,"[IdU] plasma, average steady-state",[6]; [11],0.92 µM
same,"[IU] plasma (iodouracil), average steady-state",[6]; [12],4.3 µM
same,"[IdU] plasma, average steady-state",[6]; [12],0.90 µM
same,"[IU] plasma (iodouracil), average steady-state",[6]; [13],3.0 µM
same,"[IdU] plasma, average steady-state",[6]; [13],0.57 µM
same,"[IdU] plasma, average steady-state","[6]; schedule P, 0.250 Grams/M^2/day, Klecker 1985",1.1 µM
same,"[IU] plasma (iodouracil), average steady-state",[6]; [14],1.4 µM
same,"[IdU] plasma, average steady-state",[6]; [14],0.79 µM
same,"[IU] plasma (iodouracil), average steady-state",[6]; [15],0.38 µM
same,"[IdU] plasma, average steady-state",[6]; [15],0.51 µM
